This assay relates to HCV replicon. The assay is described as follows: HCV replicon replication assay (NPT ELISA). Type of assay: cell-based. Particulars: Hepatitis C virus. The procedure: Compounds claimed herein are tested for the ability to inhibit viral replication of the Hepatitis C replicon in cultured cells in which the HCV replicon construct has been incorporated. The HCV replicon system was described by Bartenschlager, et. al (Science, 285, pp. 110-113 (1999)). The replicon system is predictive of in vivo anti-HCV activity; compounds that are active in humans uniformly evidence activity in the replicon assay.
In this assay HCV replicon containing cells are treated with different concentrations of the test compound to ascertain the ability of the test compound to suppress replication of the HCV replicon. As a positive control, HCV replicon-containing cells are treated with different concentrations of interferon alpha, a known inhibitor of HCV replication. The replicon assay system includes Neomycin Phosphotransferase (NPT) as a component of the replicon itself in order to detect the transcription of replicon gene products in the host cell. Cells in which the HCV replicon is actively replicating have high levels of NPT; the level of NPT is proportional to HCV replication. […] The NPT level of each sample is measured using a captured ELISA.
A protocol for testing compounds for the ability to inhibit viral replication of the Hepatitis C replicon cultured cells in which the replicon construct has been incorporated, follows.
The HCV replicon contains, 5′-3′, the HCV-IRES, the neomycin phosphotransferase (neo) gene, the IRES of encephalomyocarditis virus, which directs translation of HCV sequences NS3 to NS5B, and the 3′-NTR. The sequence of the HCV replicon has been deposited in GenBank (Accession no. AJ242652).
The replicon is transfected into Huh-7 cells using standard methods such as electroporation.
The equipment and materials include, but are not limited to, Huh-7 HCV replicon-containing cells, maintenance media (DMEM (Dulbecco's modified Eagle media) supplemented with 10% FBS, L-glutamine, non-essential amino acids, penicillin (100 units/ml), streptomycin (100 micrograms/ml), and 500 micrograms/ml of Geneticin (G418), screening media (DMEM supplemented with 10% FBS, L-glutamine, non-essential amino acids, penicillin (100 units/ml) and streptomycin (100 micrograms/ml)), 96 well tissue culture plates (flat bottom), 96 well plates (U bottom for drug dilution), Interferon alpha for positive control, fixation reagent (such as methanol: acetone), primary antibody (rabbit anti-NPTII), secondary antibody: Eu-N1 1, and enhancement solution.
HCV replicon-containing cells support high levels of viral RNA replicon replication when their density is suitable. Over-confluency causes decreased viral RNA replication. Therefore, cells must be kept growing in log phase in the presence of 500 micrograms/ml of G418. Generally, cells should be passed twice a week at 1: 4-6 dilution. Cell maintenance is conducted as follows:
HCV replicon-containing cells are examined under a microscope to ensure that cells growing well. Cells are rinsed once with PBS and 2 ml trypsin is added. The cell/trypsin mixture is incubated at 37° C. in a CO2 incubator for 3-5 minutes. After incubation 10 ml of complete media is added to stop the trypsinization reaction. Cells are blown gently, put into a 15 ml tube, and spun at 1200 rpm for 4 minutes. The trypsin/medium solution is removed. Medium (5 ml) is added and the cells are mixed carefully. The cells are counted.
The cells are then seeded onto 96-well plates at a density of 6000-7500 cells/100 microliters/well (6−7.5×10^5 cells/10 ml/plate). The plates are then incubated at 37° C. in a 5% CO2 incubator.
Cells are examined under a microscope approximated 24 hours after seeding and prior to adding drugs. If counting and dilution were performed correctly, cells are 60-70% confluent and nearly all cells should attach and spread evenly in the well.
HCV replicon-containing cells are rinsed with once PBS once; 2 mls of trypsin are then added. Cells are incubated at 37° C. in a 5% CO2 incubator for 3-5 minutes. […]
For orientation: In antiviral work, replicon cells carry a viral genome segment that copies itself.

[1] abbreviates: 72 h, Huh-7 HCV replicon-containing cells, three days, class symbols, read-out: EC50.
[2] abbreviates: 72 h, Huh-7 HCV replicon-containing cells, three days, numeric cells, read-out: EC50.

Experimental findings from US9125904B1, “Biphenyl imidazoles and related compounds useful for treating HCV infections” (ACHILLION PHARMACEUTICALS, INC., priority 2010, dated 2015) are described below.

Where two headings read alike, the source gives them in different places.

On to `COC(=O)N[C@H](C(=O)N1C2CCC(C2)[C@H]1c1nc(-c2ccc(-c3ccc(-c4c[nH]c([C@@H]5C6CCC(C6)N5C(=O)[C@@H](NC(=O)OC)C(C)C)n4)cc3)cc2)c[nH]1)C(C)C` [Compound 24, dimethyl (2S,2′S)-1,1′-((3S,3′S)-3,3′-(4,4′-(biphenyl-4,4'-diyl)bis(1H-imidazole-4,2-diyl))bis(2-azabicyclo[2.2.1]heptane-3,2-diyl))bis(3-methyl-1-oxobutane-2,1-diyl)dicarbamate], for which the EC50 under setting [1] was < 5 nM.
Take `COC(=O)N[C@H](C(=O)N1CCCCCC1c1nc(-c2ccc(-c3ccc(-c4c[nH]c(C5C6CCC(C6)N5C(=O)[C@@H](NC(=O)OC)C(C)C)n4)cc3)cc2)c[nH]1)C(C)C` (some centres unmarked) [Compound 63]: the half-maximal effective concentration (EC50) under setting [1] was < 5 nM.
Turning to `COC(=O)NC(C(=O)N1c2ccccc2C[C@H]1c1nc(-c2ccc(-c3ccc(-c4cnc([C@@H]5Cc6ccccc6N5C(=O)C(NC(=O)OC)C(C)C)[nH]4)cc3)cc2)c[nH]1)C(C)C` (stereo partly drawn) [Compound 25, dimethyl (2R,2′R)-1,1′-((2S,2′S)-2,2′-(5,5′-(biphenyl-4,4′-diyl)bis(1H-imidazole-5,2-diyl))bis(indoline-2,1-diyl))bis(3-methyl-1-oxobutane-2,1-diyl)dicarbamate], the EC50 was < 5 nM under setting [1] and ≤ 10000 nM (Huh-7).
With `COC(=O)N[C@H](C(=O)N1CCC[C@H]1C1=NC(c2ccc(-c3ccc4[nH]c([C@@H]5C6CCC(C6)N5C(=O)[C@@H](NC(=O)OC)C(C)C)nc4c3)cc2)CN1)C(C)C` (some centres unmarked) [Compound 65], under setting [1], the concentration giving a half-maximal response (EC50) is < 5 nM.
Still for that read-out and setting: with `COC(=O)N[C@H](C(=O)N1CC=CC1c1nc(-c2ccc(-c3ccc(-c4c[nH]c([C@@H]5C=CCN5C(=O)[C@@H](NC(=O)OC)C(C)C)n4)cc3)cc2)c[nH]1)C(C)C` (stereo partly drawn) [Compound 21, dimethyl (2S,2′S)-1,1′-((2R,2′R)-2,2′-(4,4′-(biphenyl-4,4′-diyl)bis(1H-imidazole-4,2-diyl))bis(1H-pyrrole-2,1(2H,5H)-diyl))bis(3-methyl-1-oxobutane-2,1-diyl)dicarbamate] the figure was < 5 nM.
On the same count and under the same terms, then `COC(=O)NC(C(=O)C1C(c2nc(-c3ccc(-c4ccc(-c5cnc([C@@H]6CCCN6C(=O)[C@@H](NC(=O)OC)C(C)C)[nH]5)cc4)cc3)c[nH]2)C2CC1[C@H](F)[C@@H]2F)C(C)C` (some centres unmarked) [Compound 60], with < 5 nM; and `COC(=O)N[C@H](C(=O)N1C2CC(F)C(C2)C1c1ncc(-c2ccc(-c3ccc(-c4cnc([C@@H]5CCCN5C(=O)[C@@H](NC(=O)OC)C(C)C)[nH]4)cc3)cc2)[nH]1)C(C)C` (some centres unmarked) [Compound 73], with < 5 nM.
The same measure, in the same setting: with `COC(=O)N[C@H](C(=O)N1CCc2ccc(NC(=O)c3ccc(-c4ccc(-c5cnc([C@@H]6CCCN6C(=O)[C@@H](NC(=O)OC)C(C)C)[nH]5)cc4)cc3)cc21)C(C)C` [Compound 41] the figure was < 5 nM.
Turning to `CNC(=O)C[C@H](C(=O)N1C2CCC(C2)[C@H]1c1nc(-c2ccc(-c3ccc(-c4cnc([C@@H]5C6CCC(C6)N5C(=O)[C@@H](CC(=O)NC)C(C)C)[nH]4)cc3)cc2)c[nH]1)C(C)C` (stereo partly drawn) [Compound 38, (3S,3′S)-3,3′-(3S,3′S)-3,3′-(4,4′-(biphenyl-4,4′-diyl)bis(1H-imidazole-4,2-diyl))bis(2-azabicyclo[2.2.1]heptane-3,2-diyl)bis(oxomethylene)bis(N,4-dimethylpentanamide)], the half-maximal effective concentration (EC50) is, setting by setting: under setting [2], > 1 nM; (Huh-7) ≤ 10000 nM.
Take `CCCS(=O)(=O)N1CCN(Cc2ccc(C(=O)Nc3ccc(-c4ccc(-c5c[nH]c([C@@H]6CCCN6C(=O)[C@@H](NC(=O)OC)C(C)C)n5)cc4)cc3)cc2)CC1` [Compound 22, methyl (S)-3-methyl-1-oxo-1-((S)-2-(4-(4′-(4-((4-(propylsulfonyl)piperazin-1-yl)methyl)benzamido)biphenyl-4-yl)-1H-imidazol-2-yl)pyrrolidin-1-yl)butan-2-ylcarbamate]: under setting [1], the concentration for a half-maximal effect (EC50) is < 5 nM.
As to `CNC(=O)C[C@H](C(=O)N1CCC[C@@H]1c1ncc(-c2ccc(-c3ccc(-c4cnc([C@@H]5CCCN5C(=O)[C@@H](CC(=O)NC)C(C)C)[nH]4)cc3)cc2)[nH]1)C(C)C` [Compound 40, (S)-3-((R)-2-(5-(4′-(2-((S)-1-((S)-2-isopropyl-4-(methylamino)-4-oxobutanoyl)pyrrolidin-2-yl)-1H-imidazol-5-yl)biphenyl-4-yl)-1H-imidazol-2-yl)pyrrolidine-1-carbonyl)-N,4-dimethylpentanamide], the EC50 under setting [1] was < 5 nM and the concentration for a half-maximal effect (EC50) (Huh-7) was ≤ 10000 nM.
With `COC(=O)N[C@H](C(=O)N1C2CCC(C2)C1c1ncc(-c2ccc(-c3ccc(-c4cnc(C5C6CCC(C6)N5C(=O)[C@@H](NC(=O)OC)C(C)C)[nH]4)cc3)cc2)[nH]1)C(C)C` (stereo partly drawn) [Compound 56, dimethyl (2S,2′S)-1,1′-(3,3′-(5,5′-(biphenyl-4,4′-diyl)bis(1H-imidazole-5,2-diyl))bis(2-azabicyclo[2.2.1]heptane-3,2-diyl))bis(3-methyl-1-oxobutane-2,1-diyl)dicarbamate], the EC50 under setting [1] was < 5 nM.
Consider `COC(=O)NC(C(=O)N1CCC[C@H]1c1ncc(-c2ccc(-c3ccc(-c4c[nH]c([C@@H]5Cc6ccccc6N5C(=O)C(NC(=O)OC)C(C)C)n4)cc3)cc2)[nH]1)C(C)C` (some centres unmarked) [Compound 35], for which the 50% effective concentration (EC50) under setting [1] was < 5 nM.
Same read-out and setting: with `CCCS(=O)(=O)N1CCN(Cc2ccc(NC(=O)c3ccc(-c4ccc(-c5c[nH]c([C@@H]6CCCN6C(=O)OC(C)(C)C)n5)cc4)cc3)cc2)CC1` [Compound 18, (S)-tert-butyl 2-(4-(4′-(4-((4-(propylsulfonyl)piperazin-1-yl)methyl)phenylcarbamoyl)biphenyl-4-yl)-1H-imidazol-2-yl)pyrrolidine-1-carboxylate] the figure was < 50 nM.
Consider `COC(=O)NC(C(=O)N1C2CCC(C2)C1c1nc2ccc(-c3ccc4[nH]c(C5C6CCC(C6)N5C(=O)[C@@H](NC(=O)OC)C(C)C)nc4c3)cc2[nH]1)C(C)C` (some centres unmarked) [Compound 64], for which the EC50 under setting [2] worked out at 619 nM.
Turning to `COC(=O)N[C@H](C(=O)N1CCC[C@H]1c1ncc(-c2ccc(-c3ccc(-c4c[nH]c([C@@H]5C6CC([C@H](O)C6)N5C(=O)[C@@H](NC(=O)OC)C(C)C)n4)cc3)cc2)[nH]1)C(C)C` (some centres unmarked) [Compound 45], under setting [1], the concentration for a half-maximal effect (EC50) was < 50 nM.
Same read-out and setting: with `CCCS(=O)(=O)N1CCN(Cc2ccc(NC(=O)c3ccc(-c4ccc(C(=O)Nc5ccc(CN6CCN(S(=O)(=O)CCC)CC6)cc5)cc4)cc3)cc2)CC1` [Compound 17, N4,N4′-bis(4-((4-(propylsulfonyl)piperazin-1-yl)methyl)phenyl)biphenyl-4,4′-dicarboxamide] the figure was < 50 nM; with `COC(=O)N[C@H](C(=O)N1CCC[C@H]1c1nc(-c2ccc(-c3ccc(-c4c[nH]c([C@@H]5C6CCC(CC6)N5C(=O)[C@@H](NC(=O)OC)C(C)C)n4)cc3)cc2)c[nH]1)C(C)C` [Compound 47], < 5 nM; with `CCCS(=O)(=O)N1CCN(Cc2ccc(NC(=O)c3ccc(-c4ccc(-c5c[nH]c([C@@H]6CCCN6C(=O)[C@@H](NC(=O)OC)C(C)C)n5)cc4)cc3)cc2)CC1` [Compound 19, methyl (S)-3-methyl-1-oxo-1-((S)-2-(4-(4′-(4-((4-(propylsulfonyl)piperazin-1-yl)methyl)phenylcarbamoyl)biphenyl-4-yl)-1H-imidazol-2-yl)pyrrolidin-1-yl)butan-2-ylcarbamate], < 50 nM.
Still for that read-out and setting: with `COC(=O)N[C@H](C(=O)N1CCCCC1c1nc(-c2ccc(-c3ccc(-c4c[nH]c(C5CCCCN5C(=O)[C@@H](NC(=O)OC)C(C)C)n4)cc3)cc2)c[nH]1)C(C)C` (some centres unmarked) [Compound 50] the figure was < 5 nM.

In general, EC50 refers to the midpoint of the concentration-response curve.
